Data on one substance can be found in patent US20100305071A1, “METHODS FOR IMPROVING HEALING OF AN ORAL LESION USING A GLYCEROPHOSPHATE SALT” (PRELIEF INC., priority 2007, published 2010).

Assay [1] concerns rhino mucosal passage inflammation. The experiment in a line: Observation of low concentrations of CGP on rhino mucosal passage inflammation. The format is in vivo. The following applies: CGP between 1% and 2% by weight.
Assay [2] relates to gum wounds after tooth extraction (oral lesion). Briefly: CGP powder applied to the gum wound after tooth extraction (single human subject). The format is in vivo. Here is the method:
A tooth was removed from a human, subject and normal packing was applied. There were five (5) stitches put in. Approximately 2 hours after the extraction, the human subject lightly rinsed their mouth and applied powdered CGP granulate of approximately 150 micron size granules directly to the gum and allowed the powder to become wet. Sufficient CGP powder was applied to form a light plaster coating over the wound. This was repeated approximately 6 hours later, before retiring that night, and again the next morning. In all cases, the CGP remained intact and in a cohesive mass on the gum for 15 minutes or more, after which time it slowly dissolved or dispersed and was safely swallowed. At no time during the post-extraction period was there swelling or pain. […] Rapid healing of the gum wounds was observed by a periodontist at the normal stitch-removal visit, 7 days subsequent to tooth removal. The gums had fully closed and were normal pink color in about one week. The periodontist commented that in their 15 years of practice, they had never seen this quality of healing at this speed.

The subject of assay [3] is wounds post implant placement (oral lesion). The experiment in a line: Mucosal soft tissue healing in patients post implant placement applying dry CGP (PerioCell), small uncontrolled study. The format is in vivo, human. Here is the method: Methods according to embodiments of the present invention have been applied to multiple patients post implant placement. The age range of implant patients was 30-65 years. All patients had wound closure with 4-0 silk suture with interrupted knots unless otherwise noted. The patients were instructed to apply dry CGP that has less than 5% moisture in 150 micron granulate (PerioCell™, AkPharma Inc., Pleasantville, N.J. 08232) to the wounds three times daily, approximately 4 hours apart, for the first three days succeeding surgery. Mucosal soft tissue healing was observed and studied in these patients. Patient's compliance with the use instructions for CGP was reported by the patient at the post-operational visit (post-op) and was rated as Excellent, Good, Fair or Poor. In most, but not all cases, patients were reasonably compliant.

Entries after “also recorded” stand apart in the source; their conditions may differ.

As to calcium glycerophosphate [CGP], the “effect on apparent rhino mucosal passage inflammation” value in assay [1] is reported as “favorably affect”. Besides, the “healing of the gum wounds observed by periodontist at stitch-removal visit” value in assay [2] (7 days subsequent to tooth removal) is “Rapid healing”. For the same substance, the “swelling or pain during the post-extraction period” value in assay [2] (CGP applied about 2 h and 8 h after extraction and next morning) was “At no time”. In assay [2] (after the extraction), the “time until gums were normal pink color (self-observation via mirror)” value was in the range of 36 to 48 h. The “correlation between good and excellent compliance with use instructions for CGP and little to no tissue gapping and good wound healing” value in assay [3] (all implant patients) is reported as “definite correlation”. The “erythema at the wound margin at first post-op visit” value in assay [3] (one week post-op (2 weeks for patient 018), one patient per block) was “very little erythema or edema; also recorded: very little gingival erythema; also recorded: localized mild erythema; also recorded: little to no marginal erythema; also recorded: almost no erythema; also recorded: mild mesial inflammation; also recorded: Mild left side erythema and more moderate right side marginal erythema; also recorded: Mild to moderate marginal erythema”. Besides, in assay [3] (one week post-op (2 weeks for patient 018), one patient per block, CGP three times daily for first three days, compliance varies by patient), the “wound closure / tissue approximation at first post-op visit, noted by periodontist” value is “excellent tissue approximation; also recorded: good tissue approximation; also recorded: beautiful wound approximation; also recorded: perfect wound margin approximation; also recorded: moderate tissue gaps in the left side; also recorded: wound margins came together very well with no gaps; also recorded: greater than 50% gapping of the margins; also recorded: great wound approximation with no gaps; also recorded: great wound approximation; also recorded: slight tissue gap at the mesial aspect; also recorded: no gaps seen; also recorded: excellent wound approximation and perfect closure; also recorded: great heal; also recorded: Wound closure was better in the mandible than in the maxilla; also recorded: Wound closure looked great with no gaps; also recorded: moderate gap at wound margin; also recorded: mild gap at the wound margin; also recorded: good wound approximation; also recorded: better healing on the left side than on the right; also recorded: slight gap at the wound margin; also recorded: rolled wound borders with slight gapping across”. The “healing / closure at later post-op visit” value in assay [3] (three weeks to one month post-op, one patient per block) is “completely healed; also recorded: complete heal; also recorded: healing was complete; also recorded: things looked better; also recorded: perfectly closed wound; also recorded: implant was removed; also recorded: perfect tissue approximation; also recorded: perfect wound approximation; also recorded: excellent healing; also recorded: perfect closure; also recorded: good approximation; also recorded: all looked great; also recorded: complete closure; also recorded: good closure; also recorded: wound margin looked good; also recorded: wound margins were completely approximated; also recorded: excellent heal; also recorded: perfect heal on the left side”.
